Data reported in patent US20240307350A1, “5-METHOXY-N,N-DIMETHYLTRYPTAMINE (5-MEO-DMT) FOR TREATING DEPRESSION” (GH RESEARCH IRELAND LIMITED, priority 2019, published 2024).

Test system: healthy volunteers
Assay: Clinical trial of inhaled 5-MeO-DMT in healthy volunteers: safety and tolerability
Type: in vivo, human
Description: A clinical trial was performed in which 5-MeO-DMT free base (purity not less than 99%) at different dose levels was administered via inhalation (as described in Example 1) in a single day to healthy volunteers who had prior experiences with the use of synthetic or naturally-occurring psychedelics. The trial was reviewed and approved by the relevant national competent authority and local medical ethics committee. The trial consisted of two parts: Part A, where single doses of 5-MeO-DMT dosage amounts of 2 mg, 6 mg, 12 mg and 18 mg were administered; and Part B, where an initial 5-MeO-DMT dosage amount of 6 mg was administered, and then, unless the participant had already experienced a peak psychedelic experience based on the PPEQ or the supervising physician had decided that further dose increases were inappropriate based on observed side effects, further subsequent dosage amounts of 12 mg and 18 mg were administered with about 3 hours in between each administration. Participants in Part A only received one dose and were not allowed to receive higher doses in later parts of Part A and were not allowed to participate in Part B. Participants were closely monitored for 3.5 hours after the last dose, with additional follow-up visits 1 day and 7 days after dosing. Various safety related measures (e.g., adverse event reporting, safety laboratory analyses, vital signs, ECG, CADSS, PVT, DSST, Prospective Memory Task (PMT)) as well as measures of the intensity of the psychedelic effects (MEQ30, ASC, PPEQ, subjective description of the psychedelic experience) were recorded. Pharmacokinetic analysis of 5-MeO-DMT and bufotenine plasma levels was performed at 1 hour and 3 hours after drug administration in Part A, and at 3 hours after drug administration in Part B.
18 participants were recruited into Part A of the study and 4 participants were recruited into Part B. 9 Participants were female and 13 participants were male. Median age was 29 years (range: 19 to 42 years). In Part A, 4 participants received 2 mg, 6 participants received 6 mg, 4 participants received 12 mg and 4 participants received 18 mg of 5-MeO-DMT. In Part B, 1 participant received 6 mg, 2 participants received 6 mg and then 12 mg and one participant received 6 mg, 12 mg and then 18 mg of 5-MeO-DMT.

[1] = Part A, 2 mg (n = 4), Administration day, mild
[2] = Part A, 6 mg (n = 6), Administration day, mild
[3] = Part A, 6 mg (n = 6), Day 1, mild
[4] = Part A, 18 mg (n = 4), Administration day, mild
[5] = Part A, 18 mg (n = 4), Day 1, mild
[6] = Part B, 12 mg (n = 3), after 6 mg, Administration day, mild

In the case of COc1ccc2[nH]cc(CCN(C)C)c2c1 [5-MeO-DMT, 5-methoxy-N,N-dimethyltryptamine], the “ECG, safety laboratory analyses, CADSS and cognitive tests (PVT, DSST, PMT)” value (2 mg to 18 mg via inhalation) is reported as “unremarkable”, the inhalation-related adverse events (Part A and Part B, 2 mg to 18 mg via inhalation) is reported as “No inhalation-related adverse events” and the “Adverse events reported: Nausea (number of volunteers)” value (shortened to “Adverse events reported: Nausea”) [1] is reported as 2. For the same molecule, the “Adverse events reported: Tachycardia (number of volunteers)” value [1] was 1, the “Adverse events reported: Vision blurred (number of volunteers)” value [1] was 1 and the “Adverse events reported: Anxiety (number of volunteers)” value [2] was 1. The “Adverse events reported: Headache (number of volunteers)” value (shortened to “Adverse events reported: Headache”) [2] was 1, the “Adverse events reported: Nausea” value [2] was 1 and the “Adverse events reported: Clumsiness (number of volunteers)” value [3] was 1. For the same molecule, the “Adverse events reported: Feeling hot (number of volunteers)” value [3] was 1, the “Adverse events reported: Headache” value [3] was 1 and the “Adverse events reported: Anxiety (number of volunteers)” value (Part A, 12 mg (n = 4), Administration day, mild) was 1. The “Adverse events reported: Heart rate increased (number of volunteers)” value (Part A, 12 mg (n = 4), Administration day, this event was moderate) was 1^1, the “Adverse events reported: Headache” value [4] was 1 and the “Adverse events reported: Nausea” value [4] was 1. For the same molecule, the “Adverse events reported: Abnormal dreams (number of volunteers)” value [5] was 1, the “Adverse events reported: Fatigue (number of volunteers)” value [5] was 1 and the “Adverse events reported: Hallucination (number of volunteers)” value [5] was 1. The “Adverse events reported: Hyperacusis (number of volunteers)” value [5] was 1, the “Adverse events reported: Insomnia (number of volunteers)” value [5] was 1 and the “Adverse events reported: Mental fatigue (number of volunteers)” value [5] was 1. For the same molecule, the “Adverse events reported: Flashback (number of volunteers)” value (Part A, 18 mg (n = 4), Day 7, mild) was 1, the “Adverse events reported: Nausea” value (Part B, 6 mg (n = 4), Administration day, mild) was 1 and the “Adverse events reported: Fatigue (number of volunteers)” value [6] was 1. For the same molecule, the “Adverse events reported: Head discomfort (number of volunteers)” value [6] was 1, the “Adverse events reported: Headache” value [6] was 1 and the “Adverse events reported: Nausea” value [6] was 1. For the same molecule, the Adverse events reported (Part B, 18 mg (n = 1), after 12 mg and 6 mg) was “None reported” and the “changes in vital parameters” value (shortly after administration, 2 mg to 18 mg via inhalation) was “temporary, not clinically relevant increase in heart rate and blood pressure”.
